Measurements: US20110190333A1, “DIHYDROTETRABENANZINE FOR THE TREATMENT OF ANXIETY” (Biovail Laboratories International (Barbados) S.R.L., priority 2008, published 2011)

What was measured:
[1] = system: female hooded-Lister rats; assay: Elevated plus maze, Study 1; type: in vivo, rat
Text: (§1) The elevated plus maze has been widely used as a test for anxiety, as it avoids confounding effects on consummatory responses or sensitivity to shock and it has a certain level of ethological relevance (see Rodgers R J, Cole J C (1994) The elevated plus maze. Pharmacological methods and ethology. In: Cooper, S J, Hendrie C A (eds) Ethology and Psychopharmacology. J. Wiley & Sons Ltd, pp 9-941994).
(§2) The maze consists of opposite pairs of open and closed arms, and the proportion of exploration carried out on the open arms is taken to be a measure of anxiety. Thus the percentage of open arm entries is increased by known anxiolytic agents and reduced by anxiogenic compounds (Pellow, S, Chopin P, File S E, Briley, M (1985) Validation of open: closed arm entries in an elevated plus maze as a measure of anxiety in the rat. J. Neurosci. Meth. 14: 149-167). In addition, the plus maze may be used to examine the behavioural response to stress, as exposure induces the release of corticosterone File, S E, Pellow, S (1987) Behavioural pharmacology of minor tranquillisers. J. Pharmacol. Exp. Ther. 35: 265-290). The elevated plus maze is based on an approach conflict model and has been validated as a model of anxiety in the rat (Tomkins D M (1990) The behavioural effects of anxiogenic agents in rodents. PhD thesis. Postgraduate studies in Pharmacology. University of Bradford).
(§3) Two studies were carried out using the elevated plus maze method and the aim of the studies was to assess the ability of a Isomer A for its ability to produce an anxiolytic effect in female hooded-Lister rats.
(§4) A total of 90 female hooded-Lister rats were used as subjects for study 1. Female hooded-Lister rats (Harlan, UK) were obtained as adults and weighed approximately 200-220 g at the start of the study. Subjects were housed in routinely used home cages in groups of 5 per cage. Home cages measured 59×35×24 cm. Rats were maintained under standard laboratory conditions on a 12:12 hour light/dark cycle (lights on at 08:00 h). Experimental procedures were performed in the light phase. Laboratory rooms were temperature controlled at 21±2° C. and humidity remained at 40-50% throughout the study. Rats were tested in the naïve state i.e. they had no exposure to the plus maze prior to testing, although they were handled and received sham injections prior to testing.
Isomer A (1.0-30.0 mg/kg) and chlordiazepoxide (1.0-5.0 mg/kg) were tested. Isomer A was dissolved in water and administered via the oral route 30 minutes prior to testing. Chlordiazepoxide (CDP) was dissolved in saline and administered via the intraperitoneal route 30 min prior to testing.
(§5) The maze consisted of a +shaped maze, made of Perspex, with two open arms (30×5 cm) and two closed arms (30×5 cm). The maze was arranged so that like arms are opposing. The closed arms were surrounded by matt black walls on all sides (10 cm in height). The maze was elevated to a height of 50 cm, and the surface was covered with a removable rubber matting. The behaviour of drug or vehicle-treated rats was monitored by means of a video camera attached to a TV monitor and video recorder. The rat was placed in the centre square and behaviour monitored over a 10 min test period. […] The maze was cleaned between tests and rats were placed on the maze in a randomised manner in order to minimise the effects of familiar cage mate odours.
(§6) Behaviour was recorded and the following parameters were analysed from the video tapes using the Hindsight® program for ethological analysis of behaviour: time spent on, and entries into, the open and closed arms, time spent in the centre square and rearing on the open and closed arms.
(§7) Elevated plus maze data were analysed by a one way ANOVA, followed by Dunnett's t test to assess drug effects on number of entries into the open and closed arms, length of time spent, and number of rears in, open and closed arms, and time spent in the centre square compared with vehicle.

[2] = system: female hooded-Lister rats; assay: Elevated plus maze, Study 2; type: in vivo, rat
Text: as §1, §2, §3
as §4, with “60” for “90”, “B.” for “1.”, “(Charles River,” for “(Harlan,”, “220-250” for “200-220”
Isomer A (0.1-2.5 mg/kg) and chlordiazepoxide (2.5 mg/kg) were tested. Isomer A was dissolved in water and administered via the oral route (p.o.) 30 minutes prior to testing. Chlordiazepoxide (CDP) was dissolved in saline and administered via the intraperitoneal route (i.p.) 30 min prior to testing.
as §5, §6, §7

[3] = Isomer A 1.0-10 mg/kg p.o., 10 min trial, ANOVA
[4] = Isomer A 1.0-10 mg/kg p.o., 10 minute trial, ANOVA
[5] = Isomer A 1.0-10 mg/kg p.o., 10 minute trial, overall ANOVA
[6] = CDP 2.5 mg/kg i.p. and Isomer A 0.1-2.5 mg/kg p.o., 10 min trial, overall ANOVA
[7] = CDP 1.0-5.0 mg/kg i.p., 10 min trial, ANOVA

COc1cc2c(cc1OC)[C@@H]1C[C@@H](O)[C@H](CC(C)C)CN1CC2 (single isomer, unassigned) [Isomer A]
total open arm entries ([1]; Isomer A 1 mg/kg p.o., 10 minute trial): trend towards an increase
magnitude of the increase in time spent on the open arms relative to CDP at 2.5 mg/kg ([1]; Isomer A 1 mg/kg p.o., Study 1): comparable
time spent on the open arms ([1]; Isomer A 1 mg/kg p.o., post-hoc vs vehicle (p<0.05)): significant increase
overall activity levels on the elevated plus maze ([1]; Isomer A 30 mg/kg p.o., animals remained stationary for much of the 10 minute test, behaviour not scored): markedly reduced
time spent in the centre square [1, 3]: no significant effect
time spent on the closed arms [1, 3]: no significant effect
number of rears [1, 4]: no significant effect
total closed arm entries [1, 4]: no significant effect
time spent on the open arms [1, 5]: overall significant effect
total open arm entries [1, 5]: significant effect
anxiolytic effect on the elevated plus maze ([1]; Isomer A, Study 1, some measures of behaviour): some anxiolytic potential
time spent on the closed arms ([1]; Isomer A, most marked at 1.0 mg/kg p.o., failed to reach statistical significance): trend towards a reduction
number of rears [2, 6]: no overall significant effect
time spent in the centre square [2, 6]: no overall significant effect
time spent on the closed arms [2, 6]: overall significant effect
time spent on the open arms [2, 6]: overall significant effect
total closed arm entries [2, 6]: no overall significant effect
total open arm entries [2, 6]: no overall significant effect
time in the centre square ([2]; Isomer A 0.1 mg/kg p.o., effect failed to achieve statistical significance): reduced
time spent on the closed arms ([2]; Isomer A 1.0 mg/kg p.o., post-hoc vs vehicle (p<0.05)): significant reduction
magnitude of the increase in time spent on the open arms relative to CDP at 2.5 mg/kg ([2]; Isomer A 0.1-2.5 mg/kg p.o., Study 2): comparable
time spent on the open arms ([2]; Isomer A, all doses 0.1-2.5 mg/kg p.o., post-hoc vs vehicle (p<0.05-p<0.001)): significant increase
anxiolytic effect on the elevated plus maze ([2]; Isomer A, all doses tested 0.1-2.5 mg/kg p.o., Study 2, certain measures of behaviour): anxiolytic potential

CNC1=Nc2ccc(Cl)cc2C(c2ccccc2)=[N+]([O-])C1 [CDP, chlordiazepoxide, reference compound]
number of rears [1, 7]: no significant effect
time spent on the closed arms [1, 7]: no significant effect
total closed arm entries ([1]; CDP 1.0-5.0 mg/kg i.p., 10 minute trial, ANOVA): no significant effect
